# Results taken from US12708673B2, “Methods and compositions related to peptides and proteins with c-terminal elements” (Sanford Burnham Prebys Medical Discovery Institute, priority 2008, dated 2026).
# Entries after “also recorded” stand apart in the source; their conditions may differ.
# What was measured:
# [1] = tested on: PPC-1 cells; test: T7 phage internalization into PPC-1 (PPC1) cells at 37° C. (acid wash and titration, or anti-T7 staining and confocal imaging); format: cell-based, human
# Procedure: FIG. 2A: Binding of T7 phage to prostate cancer cells depends on the display of a C-terminal arginine on the phage particles. PPC1 cells were incubated with T7 bacteriophage displaying derivatives of the G7 (upper graph) or RPARPAR peptide (SEQ ID NO: 2) (lower graph) at 4° C., and the bound phage was quantified by plaque assay. Binding is expressed in fold over of the non-binding G7 control phage. FIG. 2B: Phage displaying C-terminal arginine is internalized into cultured PPC1 cells (arrow, nuclear internalization; arrowhead, cytoplasmic internalization). A panel of T7 phage clones were incubated at 37° C. with PPC1 cells grown on collagen-coated coverslips, stained with anti T7 antibody and imaged by confocal microscopy.
# (§1) Phage display. For in vivo phage display, mice were injected intravenously with 10^10 plaque-forming units (pfu) of T7 phage followed by perfusion of the circulatory system and determination of the bound phage in target organs by titration. For cell binding studies on cultured cells (in vitro display) and organ-derived cell suspensions (ex vivo display), the cells were incubated with 10^9 pfu of phage at 4° C., washed, lysed, and quantified by titration. Incubation at 37° C. followed by low pH wash (glycine-HCl, pH 2.5) was used to assess the amount of internalized phage.
# (§2) For biopanning and phage binding studies (Hoffman, J. A. et al., 2004), cultured cells were grown to confluence and harvested with trypsin and mouse organs were dissociated using Medimachine (BD Biosciences, San Jose, CA). To measure phage binding, 10^6 cells in binding buffer (DMEM containing 1% BSA) were incubated with 10^9 pfu/ml of T7 phage for 1 hour at 4° C. The cells were washed 4 times with the binding buffer, lysed in LB bacterial growth medium containing 1% NP-40, and titrated. Phage internalization assays used the same procedure, except that the cells were incubated with the phage at 37° C., and that an acidic buffer (500 mM sodium chloride, 0.1 M glycine, 1% BSA, pH 2.5) was used instead of binding buffer in the second wash.
# Centrifugation on a silicone oil cushion (1.03 g/ml) was used to separate unbound phage from cells during time course experiments. Inhibitors of phage binding and internalization (heparin, chondroitin, glycocalyx removal enzymes, endocytosis inhibitors, free peptides, quantum dots and UV-inactivated phage) were added to the cells 20 minutes prior to incubation with phage. Endocytosis inhibitors used in this study were the following: nystatin (50 μg/ml), genistein (100 μg/ml), chlorpromazine (5 μg/ml), 5-(N-ethyl-N-isopropyl) amiloride (100 μM), wortmannin (10 μM).
# Immunofluorescence staining. Cultured cells (2×10^5 cells) were grown in 6-well tissue culture plates on collagen-I coated coverslips (BD Biosciences, San Jose, CA) overnight at 37° C. in 5% CO2, and incubated with 10^8 pfu of T7 phage. The cells were fixed in 4% paraformaldehyde or cold (−20° C.) methanol, and stained with antibodies. Nuclei were stained with DAPI or […]. A polyclonal rabbit anti-T7 antibody was generated in-house as described previously (Laakkonen, P. et al. 2002b), except that an additional phage purification step using […] centrifugation was included. Other primary antibodies used were rat anti-mouse CD31 monoclonal antibody (BD Biosciences), rabbit anti-NRP-1, mouse anti-human Lamp-1, mouse anti-human caveolin (Millipore, Temecula, CA), mouse anti-NRP-1 (Miltenyi Biotec Inc., Auburn, CA), mouse anti-human EEA-1 (BD Biosciences, San Jose, CA). The secondary antibodies, Alexa594 goat antibodies to mouse, rat, and rabbit immunoglobulins and Alexa488 donkey anti-rabbit antibody were from Invitrogen (Carlsbad, CA). Cells and tissue sections were examined by confocal microscopy (Fluoview 500, Olympus America Inc., Center Valley, PA).
# [2] = tested on: PPC-1 cells; test: Binding and internalization of peptide-coated quantum dots by PPC-1 cells (confocal/fluorescence microscopy); format: cell-based, human; conditions: excess of RPARPAR-displaying phage
# [3] = tested on: Du-145; test: RPARPAR phage binding to cultured cells at 4° C.; format: cell-based, human; conditions: Du-145 prostate cancer cells
# Procedure: (§3) FIG. 15A: Binding of RPARPAR (SEQ ID NO:2) phage to the cultured cells at 4° C. in vitro. FIG. 15B: Binding of RPARPAR (SEQ ID NO:2) phage to primary cell suspensions of mouse organs at 4° C. ex vivo. FIGS. 15C and 15D: Tissue distribution of intravenously injected RPARPAR (SEQ ID NO:2) phage after 20 minutes of circulation time. FIG. 15C: Phage was quantified by titration, tissue binding is expressed as fold G7 phage. Statistical analysis was performed by Student's t-test (c). n=3; error bars indicate s.d.; double asterisk, p<0.01, triple asterisk, p<0.001. FIG. 15D (panels d and e): Immunofluorescence localization of T7 phage (light coloring) in lung sections of mice injected intravenously with RPARPAR (SEQ ID NO:2) (d) or G7 (e) phage. Widespread immunoreactivity is present in the lungs of mice injected with RPARPAR (SEQ ID NO:2) (arrowheads in d) but not G7 (with occasional labeling seen in vessels, arrows in e). Scale bar: 50 μm.
# as §1, with “Incubation at 37° C. followed by low pH wash (glycine-HCl, pH 2.5) was used to assess the amount of internalized phage.” left out
# [4] = tested on: PC-3; test: RPARPAR phage binding to cultured cells at 4° C.; format: cell-based, human; conditions: PC-3 prostate cancer cells
# Procedure: as §3
# as §1, with “Incubation at 37° C. followed by low pH wash (glycine-HCl, pH 2.5) was used to assess the amount of internalized phage.” left out
# [5] = tested on: 4T1; test: RPARPAR phage binding to cultured cells at 4° C.; format: cell-based; conditions: 4T1 breast cancer
# Procedure: as §3, §1, §2
# [6] = tested on: B16F10; test: RPARPAR phage binding to cultured cells at 4° C.; format: cell-based; conditions: B16F10 melanoma cells
# Procedure: as §3, §1, §2
# [7] = tested on: M21 melanoma cells; test: RPARPAR phage binding to cultured cells at 4° C.; format: cell-based; conditions: non-transfected M21
# Procedure: as §3, §1, §2
# [8] = tested on: MDA-MB-435 human cancer cells; test: RPARPAR phage binding to cultured cells at 4° C.; format: cell-based
# Procedure: as §3, §1, §2
# [9] = tested on: MIA PaCa-2; test: RPARPAR phage binding to cultured cells at 4° C.; format: cell-based; conditions: MIA PaCa-2 pancreatic carcinoma
# Procedure: as §3, §1, §2
# [10] = tested on: PDAC1.3; test: RPARPAR phage binding to cultured cells at 4° C.; format: cell-based; conditions: PDAC1.3 pancreatic carcinoma
# Procedure: as §3, §1, §2
# [11] = tested on: human umbilical vein endothelial cells (HUVEC); test: RPARPAR phage binding to cultured cells at 4° C.; format: cell-based
# Procedure: as §3, §1, §2
# [12] = tested on: murine vascular endothelial cells (F2); test: RPARPAR phage binding to cultured cells at 4° C.; format: cell-based
# Procedure: as §3, §1, §2
# [13] = Tissue distribution of intravenously injected phage in mice (titration, immunofluorescence); format: in vivo, mouse; conditions: intravenous
# Procedure: as §3, §1
# In vivo phage homing studies in mice were carried out by injecting 10^10 pfu of T7 phage into tail vein and 10 minutes to 1 hour later, the mice were perfused with DMEM through the left ventricle of the heart. The organs of interest were collected, homogenized in 1% NP40 and the phage was quantified by titration.
substance,measurement,setting,value
RPARPAR [RPARPAR phage],Effect of pre-incubation with UV-inactivated phage on iRGD phage internalization,[1],decreased
same,Phage internalization into PPC-1 cells (in words),[1]; 37° C.,robust binding and internalization
same,Time to perinuclear accumulation,"[1]; phage, 37° C.",1 h
same,Time to plasma membrane association,"[1]; phage, 37° C.",15 min
same,Effect of pre-incubation of cells with excess phage on RPARPAR-Q-dot internalization,[2],inhibited
same,Phage binding,[3],bound
same,Phage binding,[4],bound
same,Phage binding,[5],bound
same,Phage binding,[6],bound
same,Phage binding over control phage,[7],did not bind; also recorded: do not bind nor internalize
same,Phage binding,[8],bound
same,Phage binding,[9],bound
same,Phage binding,[10],bound
same,Phage binding,[11],binding was also seen
same,Phage binding,[12],binding was also seen
same,Penetration into tissue parenchyma (lungs),[13],able to penetrate into tissue parenchyma
same,Phage immunoreactivity in lung sections,[13],seen throughout the tissue
same,Accumulation of intravenously injected phage in the heart,[13]; 20 minutes of circulation,to a lesser extent
same,Accumulation of intravenously injected phage in the lungs,[13]; 20 minutes of circulation,accumulated strongly
